# Patent US20230028463A1, “METHOD FOR PRODUCING ACTINIC RAY-SENSITIVE OR RADIATION-SENSITIVE RESIN COMPOSITION, PATTERN FORMATION METHOD, AND METHOD FOR MANUFACTURING ELECTRONIC DEVICE” (FUJIFILM Corporation, priority 2020, published 2023)
# Assay: Solubility of photoacid generator in 100 g of solvent at 25° C.
# Format: physicochemical
# Conditions: in 100 g of PGME at 25° C.
# Protocol: <Solubility (g) of Photoacid Generator in 100 g of Solvent at 25° C.>
# “A”: The solubility is more than 3 g
# “B”: The solubility is 0.5 to 3 g
# “C”: The solubility is less than 0.5 g
smiles,measurement,value
c1ccc([S+]2CCCC2)cc1 [B-4],Solubility (25° C.) of photoacid generator in solvent,A (The solubility is more than 3 g)
